From patent publication US7368232B2, “High-throughput assay for virus entry and drug screening” (priority 2003, dated 2008)

What was measured:
[1] = tested on: VSV-G pseudotyped virus containing env-luc1; format: cell-based, vesicular stomatitis virus
[2] = tested on: VSV-G pseudotyped virus; format: cell-based, vesicular stomatitis virus
[3] = tested on: VSV env pseudotyped virus; format: cell-based, Vesicular Stomatitis Virus
[4] = tested on: MLV env pseudotyped virus; format: cell-based, murine leukemia virus
[5] = tested on: Ebola env pseudotyped virus; format: cell-based
[6] = tested on: Rabies env pseudotyped virus; format: cell-based
[7] = tested on: Friend MLV containing env-luc1; format: cell-based, Friend murine leukemia virus

| Structure (SMILES) | effect on luciferase entry signal [1] | reduction of infection (β-galactosidase infection assay) [2] [fold] | effect on luciferase activities in the viral entry assay [3] | effect on luciferase activities in the viral entry assay [4] | effect on entry of Ebola virus env pseudotyped particles [5] | effect on luciferase activities in the viral entry assay [6] | effect on luciferase entry signal [7] | decrease of luciferase entry signal [1] [fold] |
| --- | --- | --- | --- | --- | --- | --- | --- | --- |
| CO/C1=C\C(C)=C\[C@@H](C)[C@@H](O)[C@@H](C)C/C(C)=C/C=C/[C@H](OC)[C@@H]([C@@H](C)[C@@H](O)[C@H](C)[C@@]2(O)C[C@@H](O)[C@H](C)[C@@H](C(C)C)O2)OC1=O [bafilomycin A1] | inhibited the signal | 100 | completely inhibit | little effect | significantly inhibited | completely inhibit | only weakly affected | – |
| Cl.N [ammonium chloride] | inhibited the signal | – | completely inhibit | – | significantly inhibited | completely inhibit | only weakly affected | – |
| CCN(CC)CCCC(C)Nc1ccnc2cc(Cl)ccc12 (stereo not shown) [chloroquine] | inhibited the signal | 20 | – | – | – | – | only weakly affected | 7 |
